The target of the assay is Recombinant human cathepsin S (CatS) (Homo sapiens, UniProt P25774). In words: Recombinant human cathepsin S (CatS) inhibition assay, fluorogenic substrate Z-Valine-Valine-Arginine-AMC.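 Note: Baculovirus-expressed CatS in pH 5.0 sodium acetate buffer with DTT and NaCl, fluorescence read each minute over 20 min, inhibition derived from rate slope.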

The results in this text go back to patent US20080200454A1, “CARBON-LINKED TETRAHYDRO-PYRAZOLO-PYRIDINE MODULATORS OF CATHEPSIN S” (priority 2007, published 2008).

Where two headings read alike, the source gives them in different places.

Sequence of Recombinant human cathepsin S (CatS) (P25774 115-331): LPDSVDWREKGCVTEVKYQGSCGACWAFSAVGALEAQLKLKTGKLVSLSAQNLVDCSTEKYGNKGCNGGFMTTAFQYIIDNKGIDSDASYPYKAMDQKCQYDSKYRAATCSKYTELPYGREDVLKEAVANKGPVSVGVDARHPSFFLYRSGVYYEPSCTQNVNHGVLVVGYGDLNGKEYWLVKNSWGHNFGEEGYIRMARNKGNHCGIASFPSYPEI

Broadly, the IC50 is the point on the concentration scale where inhibition reaches its midpoint. As to `Cc1cccc(S(=O)(=O)NCCCc2cc(-c3nn(CCCN4CCC(N5CCCC5=O)CC4)c4c3CN(S(C)(=O)=O)CC4)ccc2Cl)c1` [Example 97, N-{3-[2-Chloro-5-(5-methanesulfonyl-1-{3-[4-(2-oxo-pyrrolidin-1-yl)-piperidin-1-yl]-propyl}-4,5,6,7-tetrahydro-1H-pyrazolo[4,3-c]pyridin-3-yl)-phenyl]-propyl}-3-methyl-benzenesulfonamide], the IC50 was found to be 1310 nM.

With `CS(=O)(=O)N1CCc2c(c(-c3ccc(Cl)c(C#CCN)c3)nn2CCCN2CCC(N3CCCC3=O)CC2)C1` [Example 307, 1-[1-(3-{3-[3-(3-Aminoprop-1-yn-1-yl)-4-chlorophenyl]-5-(methylsulfonyl)-4,5,6,7-tetrahydro-1H-pyrazolo[4,3-c]pyridin-1-yl}propyl)piperidin-4-yl]pyrrolidin-2-one], the IC50 was 4650 nM.

Regarding `CS(=O)(=O)N1CCc2c(c(-c3ccc(Cl)c(C#Cc4cccc(CNCc5cccnc5)c4)c3)nn2CCCN2CCOCC2)C1` [Example 521, 1-[3-({2-Chloro-5-[5-(methylsulfonyl)-1-(3-morpholin-4-ylpropyl)-4,5,6,7-tetrahydro-1H-pyrazolo[4,3-c]pyridin-3-yl]phenyl}ethynyl)phenyl]-N-(pyridin-3-ylmethyl)methanamine], the IC50 (CatS IC50) came to 370 nM.

Consider `CS(=O)(=O)N1CCc2c(c(-c3ccc(Cl)c(C#Cc4cccc(Cl)c4)c3)nn2CCCN2CCOCC2)C1` [Example 25, 3-[4-Chloro-3-(3-chloro-phenylethynyl)-phenyl]-5-methanesulfonyl-1-(3-morpholin-4-yl-propyl)-4,5,6,7-tetrahydro-1H-pyrazolo[4,3-c]pyridine], for which, under “CatS IC50”, the IC50 came out at 700 nM.

Turning to `CS(=O)(=O)N1CCc2c(c(-c3ccc(Cl)c(C#Cc4ccc(CNCCO)cc4)c3)nn2CCCN2CCOCC2)C1` [Example 469, 2-({[4-({2-Chloro-5-[5-(methylsulfonyl)-1-(3-morpholin-4-ylpropyl)-4,5,6,7-tetrahydro-1H-pyrazolo[4,3-c]pyridin-3-yl]phenyl}ethynyl)phenyl]methyl}amino)ethanol], the IC50 (CatS IC50) is 530 nM.

Turning to `NC(=O)N1CCc2c(c(-c3ccc(Cl)c(C#Cc4ccc(C(=O)N5CCCC5)cc4)c3)nn2CCCN2CCSCC2)C1` [Example 164, 3-(4-Chloro-3-{[4-(pyrrolidin-1-ylcarbonyl)phenyl]ethynyl}phenyl)-1-(3-thiomorpholin-4-ylpropyl)-1,4,6,7-tetrahydro-5H-pyrazolo[4,3-c]pyridine-5-carboxamide], the IC50 (CatS IC50) is 730 nM.

Consider `CS(=O)(=O)N1CCc2c(c(-c3ccc(Cl)c(C#Cc4ccc(CNCc5ccc(Cl)cc5)cc4)c3)nn2CCCN2CCN(c3ccccn3)CC2)C1` [Example 179, 1-{4-[(2-Chloro-5-{5-(methylsulfonyl)-1-[3-(4-pyridin-2-ylpiperazin-1-yl)propyl]-4,5,6,7-tetrahydro-1H-pyrazolo[4,3-c]pyridin-3-yl}phenyl)ethynyl]phenyl}-N-[(4-chlorophenyl)methyl]methanamine], for which the IC50 was 20 nM.

As for `CC(=O)NC1CCN(CCCn2nc(-c3ccc(Cl)c(C#Cc4ccc(CNCc5ccc(Cl)cc5)cc4)c3)c3c2CCN(C(N)=O)C3)CC1` [Example 459, 1-{3-[4-(Acetylamino)piperidin-1-yl]propyl}-3-(4-chloro-3-{[4-({[(4-chlorophenyl)methyl]amino}methyl)phenyl]ethynyl}phenyl)-1,4,6,7-tetrahydro-5H-pyrazolo[4,3-c]pyridine-5-carboxamide], the IC50 (CatS IC50) is 20 nM.

Turning to `CS(=O)(=O)N1CCc2c(c(-c3ccc(Cl)c(C#Cc4ccc(CNCc5ccc(Cl)cc5)cc4)c3)nn2CCCN2CCN(C(=O)c3ccccc3)CC2)C1` [Example 380, 1-[4-({2-Chloro-5-[5-(methylsulfonyl)-1-{3-[4-(phenylcarbonyl)piperazin-1-yl]propyl}-4,5,6,7-tetrahydro-1H-pyrazolo[4,3-c]pyridin-3-yl]phenyl}ethynyl)phenyl]-N-[(4-chlorophenyl)methyl]methanamine], under “CatS IC50”, the IC50 turned out to be 60 nM.

As to `C[C@H]1COCCN1CCCn1nc(-c2ccc(Cl)c(C#Cc3ccc(Cl)c(C(=O)NCCCN(C)C(=O)OC(C)(C)C)c3)c2)c2c1CCN(C(=O)C(N)=O)C2` [Example 576, tert-Butyl (3-{[(5-{[5-(5-[amino(oxo)acetyl]-1-{3-[(3S)-3-methylmorpholin-4-yl]propyl}-4,5,6,7-tetrahydro-1H-pyrazolo[4,3-c]pyridin-3-yl)-2-chlorophenyl]ethynyl}-2-chlorophenyl)carbonyl]amino}propyl)methylcarbamate], for the setting “CatS IC50”, the IC50 turned out to be 50 nM.

For `NC(=O)N1CCc2c(c(-c3ccc(Cl)c(CCc4ccc(Cl)cc4)c3)nn2C[C@@H](O)CN2CCC(C3CCNCC3)CC2)C1` [Example 479, 1-[(2S)-3-(4,4′-Bipiperidin-1-yl)-2-hydroxypropyl]-3-{4-chloro-3-[2-(4-chlorophenyl)ethyl]phenyl}-1,4,6,7-tetrahydro-5H-pyrazolo[4,3-c]pyridine-5-carboxamide], the IC50 was 20 nM.

Take `CS(=O)(=O)N1CCc2c(c(-c3ccc(Cl)c(CCCCNC4CCCC4)c3)nn2CCCN2CCC(N3CCCC3=O)CC2)C1` [Example 115, 1-[1-(3-{3-[4-Chloro-3-(4-cyclopentylamino-butyl)-phenyl]-5-methanesulfonyl-4,5,6,7-tetrahydro-pyrazolo[4,3-c]pyridin-1-yl}-propyl)-piperidin-4-yl]-pyrrolidin-2-one]: the IC50 was found to be 1690 nM.

Turning to `NC(=O)C(=O)N1CCc2c(c(-c3ccc(Cl)c(C#Cc4ccc(CNCc5ccc(Cl)cc5)cc4)c3)nn2C[C@H](O)CN2CCOCC2)C1` [Example 254, (R)-2-[3-(4-Chloro-3-{4-[(4-chloro-benzylamino)-methyl]-phenylethynyl}-phenyl)-1-(2-hydroxy-3-morpholin-4-yl-propyl)-1,4,6,7-tetrahydro-pyrazolo[4,3-c]pyridin-5-yl]-2-oxo-acetamide], the IC50 (CatS IC50) worked out at 240 nM.

With `CS(=O)(=O)N1CCc2c(c(-c3ccc(Cl)c(CCc4ccc(Cl)cc4)c3)nn2CC(O)CN2CCC3(CCNC3=O)CC2)C1` (stereo not shown) [Example 148, 8-[3-(3-{4-Chloro-3-[2-(4-chloro-phenyl)-ethyl]-phenyl}-5-methanesulfonyl-4,5,6,7-tetrahydro-pyrazolo[4,3-c]pyridin-1-yl)-2-hydroxy-propyl]-2,8-diaza-spiro[4.5]decan-1-one], the IC50 is 80 nM.

Regarding `CC(=O)NC1CCN(CCCn2nc(-c3ccc(Cl)c(C#Cc4ccc(CNCc5ccc(Cl)cc5)cc4)c3)c3c2CCNC3)CC1` [Example 369, N-(1-{3-[3-(4-Chloro-3-{[4-({[(4-chlorophenyl)methyl]amino}methyl)phenyl]ethynyl}phenyl)-4,5,6,7-tetrahydro-1H-pyrazolo[4,3-c]pyridin-1-yl]propyl}piperidin-4-yl)acetamide], the IC50 was 410 nM.

On to `CC(C)(C)OC(=O)N1CCCN(CCCn2nc(-c3ccc(Cl)c(C#Cc4ccc(CNCc5ccc(Cl)cc5)cc4)c3)c3c2CCN(S(C)(=O)=O)C3)CC1` [Example 390, 1,1-Dimethylethyl 4-{3-[3-(4-chloro-3-{[4-({[(4-chlorophenyl)methyl]amino}methyl)phenyl]ethynyl}phenyl)-5-(methylsulfonyl)-4,5,6,7-tetrahydro-1H-pyrazolo[4,3-c]pyridin-1-yl]propyl}-1,4-diazepane-1-carboxylate], for which the IC50 (CatS IC50) worked out at 150 nM.
